# Reference: ChEMBL document CHEMBL2413072, “Synthesis and in vitro anticancer studies of novel C-2 arylidene congeners of lantadenes” (2013)
# The source made the active and inactive calls. The rule behind the calls is not given here.
# Key:
# Assay type in all cases: functional
# UACC-62 = experiment: Growth inhibition of human UACC62 cells assessed as growth inhibition at 10 uM by sulforhodamine B assay; settings: read-out: GI
# IGROV-1 [1] = experiment: Growth inhibition of human IGROV1 cells assessed as cell growth at 10 uM by sulforhodamine B assay; settings: read-out: Activity
# A549 = experiment: Growth inhibition of human A549/ATCC cells assessed as growth inhibition at 10 uM by sulforhodamine B assay; settings: read-out: GI
# SR [2] = experiment: Growth inhibition of human SR cells assessed as growth inhibition at 10 uM by sulforhodamine B assay; settings: read-out: GI
# NCI-H23 = experiment: Growth inhibition of human NCI-H23 cells assessed as cell growth at 10 uM by sulforhodamine B assay; settings: read-out: Activity
# HL-60(TB) [3] = experiment: Growth inhibition of human HL-60(TB) cells assessed as cell growth at 10 uM by sulforhodamine B assay; settings: read-out: Activity
# BT-549 [4] = experiment: Growth inhibition of human BT549 cells assessed as cell growth at 10 uM by sulforhodamine B assay; settings: read-out: Activity
# MDA-MB-468 = experiment: Growth inhibition of human MDA-MB-468 cells assessed as cell growth at 10 uM by sulforhodamine B assay; settings: read-out: Activity
# Malme-3M [5] = experiment: Growth inhibition of human MALME-3M cells assessed as cell growth at 10 uM by sulforhodamine B assay; settings: read-out: Activity
# BT-549 [6] = experiment: Growth inhibition of human BT549 cells assessed as growth inhibition at 10 uM by sulforhodamine B assay; settings: read-out: GI
# MDA-MB-435 = experiment: Growth inhibition of human MDA-MB-435 cells assessed as growth inhibition at 10 uM by sulforhodamine B assay; settings: read-out: GI
# UACC-257 [7] = experiment: Growth inhibition of human UACC257 cells assessed as growth inhibition at 10 uM by sulforhodamine B assay; settings: read-out: GI
# M14 = experiment: Growth inhibition of human M14 cells assessed as cell growth at 10 uM by sulforhodamine B assay; settings: read-out: Activity
# SF-268 = experiment: Growth inhibition of human SF268 cells assessed as cell growth at 10 uM by sulforhodamine B assay; settings: read-out: Activity
# [8] = Growth inhibition of human EKVX cells assessed as growth inhibition at 10 uM by sulforhodamine B assay; settings: read-out: GI
# [9] = Growth inhibition of human Hs 578T cells assessed as cell growth at 10 uM by sulforhodamine B assay; settings: read-out: Activity
# Malme-3M [10] = experiment: Growth inhibition of human MALME-3M cells assessed as growth inhibition at 10 uM by sulforhodamine B assay; settings: read-out: GI
# MOLT-4 = experiment: Growth inhibition of human MOLT4 cells assessed as cell growth at 10 uM by sulforhodamine B assay; settings: read-out: Activity
# ACHN = experiment: Growth inhibition of human ACHN cells assessed as cell growth at 10 uM by sulforhodamine B assay; settings: read-out: Activity
# SW-620 = experiment: Growth inhibition of human SW620 cells assessed as growth inhibition at 10 uM by sulforhodamine B assay; settings: read-out: GI
# MDA-MB-231 = experiment: Growth inhibition of human MDA-MB-231 cells assessed as growth inhibition at 10 uM by sulforhodamine B assay; settings: read-out: GI
# SNB-75 [11] = experiment: Growth inhibition of human SNB75 cells assessed as cell growth at 10 uM by sulforhodamine B assay; settings: read-out: Activity
# SF-539 = experiment: Growth inhibition of human SF539 cells assessed as growth inhibition at 10 uM by sulforhodamine B assay; settings: read-out: GI
# SN12C = experiment: Growth inhibition of human SN12C cells assessed as cell growth at 10 uM by sulforhodamine B assay; settings: read-out: Activity
# IGROV-1 [12] = experiment: Growth inhibition of human IGROV1 cells assessed as growth inhibition at 10 uM by sulforhodamine B assay; settings: read-out: GI
# NCI-H460 = experiment: Growth inhibition of human NCI-H460 cells assessed as cell growth at 10 uM by sulforhodamine B assay; settings: read-out: Activity
# COLO 205 = experiment: Growth inhibition of human COLO205 cells assessed as growth inhibition at 10 uM by sulforhodamine B assay; settings: read-out: GI
# SNB-75 [13] = experiment: Growth inhibition of human SNB75 cells assessed as growth inhibition at 10 uM by sulforhodamine B assay; settings: read-out: GI
# HOP-62 = experiment: Growth inhibition of human HOP62 cells assessed as growth inhibition at 10 uM by sulforhodamine B assay; settings: read-out: GI
# RXF 393 [14] = experiment: Growth inhibition of human RXF393 cells assessed as cell growth at 10 uM by sulforhodamine B assay; settings: read-out: Activity
# U-251 = experiment: Growth inhibition of human U251 cells assessed as cell growth at 10 uM by sulforhodamine B assay; settings: read-out: Activity
# HOP-92 [15] = experiment: Growth inhibition of human HOP92 cells assessed as growth inhibition at 10 uM by sulforhodamine B assay; settings: read-out: GI
# DU-145 = experiment: Growth inhibition of human DU145 cells assessed as growth inhibition at 10 uM by sulforhodamine B assay; settings: read-out: GI
# UO-31 = experiment: Growth inhibition of human UO31 cells assessed as growth inhibition at 10 uM by sulforhodamine B assay; settings: read-out: GI
# NCI-H322M = experiment: Growth inhibition of human NCI-H322M cells assessed as cell growth at 10 uM by sulforhodamine B assay; settings: read-out: Activity
# T47D = experiment: Growth inhibition of human T47D cells assessed as cell growth at 10 uM by sulforhodamine B assay; settings: read-out: Activity
# K562 = experiment: Growth inhibition of human K562 cells assessed as growth inhibition at 10 uM by sulforhodamine B assay; settings: read-out: GI
# UACC-257 [16] = experiment: Growth inhibition of human UACC257 cells assessed as cell growth at 10 uM by sulforhodamine B assay; settings: read-out: Activity
# SR [17] = experiment: Growth inhibition of human SR cells assessed as cell growth at 10 uM by sulforhodamine B assay; settings: read-out: Activity
# CCRF-CEM = experiment: Growth inhibition of human CCRF-CEM cells assessed as growth inhibition at 10 uM by sulforhodamine B assay; settings: read-out: GI
# OVCAR-4 = experiment: Growth inhibition of human OVCAR4 cells assessed as cell growth at 10 uM by sulforhodamine B assay; settings: read-out: Activity
# HCT-116 = experiment: Growth inhibition of human HCT116 cells assessed as cell growth at 10 uM by sulforhodamine B assay; settings: read-out: Activity
# HOP-92 [18] = experiment: Growth inhibition of human HOP92 cells assessed as cell growth at 10 uM by sulforhodamine B assay; settings: read-out: Activity
# LOX IMVI = experiment: Growth inhibition of human LOXIMVI cells assessed as cell growth at 10 uM by sulforhodamine B assay; settings: read-out: Activity
# HL-60(TB) [19] = experiment: Growth inhibition of human HL-60(TB) cells assessed as growth inhibition at 10 uM by sulforhodamine B assay
# KM12 = experiment: Growth inhibition of human KM12 cells assessed as cell growth at 10 uM by sulforhodamine B assay; settings: read-out: Activity
# RXF 393 [20] = experiment: Growth inhibition of human RXF393 cells assessed as growth inhibition at 10 uM by sulforhodamine B assay; settings: read-out: GI
# SK-MEL-5 = experiment: Growth inhibition of human SK-MEL-5 cells assessed as cell growth at 10 uM by sulforhodamine B assay; settings: read-out: Activity
# MCF7 = experiment: Growth inhibition of human MCF7 cells assessed as growth inhibition at 10 uM by sulforhodamine B assay; settings: read-out: GI
smiles,measurement,setting,value
CC(C)=CC(=O)O[C@@H]1CC(C)(C)C[C@H]2C3=CC[C@@H]4[C@@]5(C)CCC(=O)C(C)(C)[C@@H]5CC[C@@]4(C)[C@]3(C)CC[C@@]12C(=O)O,inhibition of growth at 10 µM,UACC-62,42.2%
same,growth at 10 µM,IGROV-1 [1],62.3%
same,inhibition of growth at 10 µM,A549,77.8%
same,inhibition of growth at 10 µM,SR [2],47.9%
same,growth at 10 µM,NCI-H23,53.4%
same,growth at 10 µM,HL-60(TB) [3],10.2%
same,growth at 10 µM,BT-549 [4],69.6%
same,growth at 10 µM,MDA-MB-468,64.2%
same,growth at 10 µM,Malme-3M [5],85.4%
same,inhibition of growth at 10 µM,BT-549 [6],30.4%
same,inhibition of growth at 10 µM,MDA-MB-435,10.4%
same,inhibition of growth at 10 µM,UACC-257 [7],26.1%
same,growth at 10 µM,M14,80.3%
same,growth at 10 µM,SF-268,73%
same,inhibition of growth at 10 µM,[8],58.8%
same,growth at 10 µM,[9],79.6%
same,inhibition of growth at 10 µM,Malme-3M [10],14.6%
same,growth at 10 µM,MOLT-4,36.5%
same,growth at 10 µM,ACHN,43.9%
same,inhibition of growth at 10 µM,SW-620,37.3%
same,inhibition of growth at 10 µM,MDA-MB-231,28.5%
same,growth at 10 µM,SNB-75 [11],70%
same,inhibition of growth at 10 µM,SF-539,35%
same,growth at 10 µM,SN12C,42.6%
same,inhibition of growth at 10 µM,IGROV-1 [12],37.7%
same,growth at 10 µM,NCI-H460,47.1%
same,inhibition of growth at 10 µM,COLO 205,29%
same,inhibition of growth at 10 µM,SNB-75 [13],30%
same,inhibition of growth at 10 µM,HOP-62,39.8%
same,growth at 10 µM,RXF 393 [14],84.6%
same,growth at 10 µM,U-251,38.2%
same,inhibition of growth at 10 µM,HOP-92 [15],71.6%
same,inhibition of growth at 10 µM,DU-145,25.6%
same,inhibition of growth at 10 µM,UO-31,58%
same,growth at 10 µM,NCI-H322M,54%
same,growth at 10 µM,T47D,61.6%
same,inhibition of growth at 10 µM,K562,55%
same,growth at 10 µM,UACC-257 [16],73.9%
same,growth at 10 µM,SR [17],52.1%
same,inhibition of growth at 10 µM,CCRF-CEM,74.7%
same,growth at 10 µM,OVCAR-4,71.3%
same,growth at 10 µM,HCT-116,26.6%
same,growth at 10 µM,HOP-92 [18],28.4%
same,growth at 10 µM,LOX IMVI,51.2%
same,inhibition of growth at 10 µM,HL-60(TB) [19]; read-out: GI,89.8%
same,growth at 10 µM,KM12,30.4%
same,inhibition of growth at 10 µM,RXF 393 [20],15.4%
same,growth at 10 µM,SK-MEL-5,47.9%
same,inhibition of growth at 10 µM,MCF7,50.7%
C/C=C(/C)C(=O)O[C@@H]1CC(C)(C)C[C@H]2C3=CC[C@@H]4[C@@]5(C)CCC(=O)C(C)(C)[C@@H]5CC[C@@]4(C)[C@]3(C)CC[C@@]12C(=O)O [LANTADENE A],inhibition of growth at 10 µM,UACC-62,50.1%
same,growth at 10 µM,IGROV-1 [1],71.6%
same,inhibition of growth at 10 µM,A549,60.8%
same,inhibition of growth at 10 µM,SR [2],30.5%
same,growth at 10 µM,NCI-H23,58%
same,growth at 10 µM,HL-60(TB) [3],-5.42%
same,growth at 10 µM,BT-549 [4],44%
same,growth at 10 µM,MDA-MB-468,50.8%
same,growth at 10 µM,Malme-3M [5],80.4%
same,inhibition of growth at 10 µM,BT-549 [6],56%
same,inhibition of growth at 10 µM,MDA-MB-435,12.2%
same,inhibition of growth at 10 µM,UACC-257 [7],30%
same,growth at 10 µM,M14,63.8%
same,growth at 10 µM,SF-268,74.1%
same,inhibition of growth at 10 µM,[8],50.7%
same,growth at 10 µM,[9],78.8%
same,inhibition of growth at 10 µM,Malme-3M [10],19.6%
same,growth at 10 µM,MOLT-4,43.3%
same,growth at 10 µM,ACHN,53.9%
same,inhibition of growth at 10 µM,SW-620,31.3%
same,inhibition of growth at 10 µM,MDA-MB-231,24.3%
same,growth at 10 µM,SNB-75 [11],86.9%
same,inhibition of growth at 10 µM,SF-539,21.8%
same,growth at 10 µM,SN12C,52.4%
same,inhibition of growth at 10 µM,IGROV-1 [12],28.4%
same,growth at 10 µM,NCI-H460,51.5%
same,inhibition of growth at 10 µM,COLO 205,22%
same,inhibition of growth at 10 µM,SNB-75 [13],13.1%
same,inhibition of growth at 10 µM,HOP-62,24.4%
same,growth at 10 µM,RXF 393 [14],88.5%
same,growth at 10 µM,U-251,60.1%
same,inhibition of growth at 10 µM,HOP-92 [15],56.3%
same,inhibition of growth at 10 µM,DU-145,17.4%
same,inhibition of growth at 10 µM,UO-31,57.4%
same,growth at 10 µM,NCI-H322M,68.5%
same,growth at 10 µM,T47D,63.9%
same,inhibition of growth at 10 µM,K562,55.9%
same,growth at 10 µM,UACC-257 [16],70%
same,growth at 10 µM,SR [17],69.5%
same,inhibition of growth at 10 µM,CCRF-CEM,56.4%
same,growth at 10 µM,OVCAR-4,76.9%
same,growth at 10 µM,HCT-116,34%
same,growth at 10 µM,HOP-92 [18],43.7%
same,growth at 10 µM,LOX IMVI,61.8%
same,growth inhibition (GI),HL-60(TB) [19],Active
same,growth at 10 µM,KM12,40%
same,inhibition of growth at 10 µM,RXF 393 [20],11.5%
same,growth at 10 µM,SK-MEL-5,38.7%
same,inhibition of growth at 10 µM,MCF7,45.3%
